According to patent publication US9399038B2, “Benzothiophene compound” (ASTELLAS PHARMA INC., priority 2013, dated 2016):
Where a name gives a salt, the structure may show the parent alone.

Assays:
[1] = target: T1, IK1 channel (Homo sapiens, UniProt O15554); assay: IK1 channel opening activity measurement test (membrane potential, human IK1 channel expressing CHO dhfr- cells); type: cell-based; parameters: expressed in transfected cells; host or cells: CHO dhfr- cells; settings: NS-309 0.2 μM = 100%, DMSO = 0%, read-out: EC50 of IK1 channel opening action
Experimental: (§1) Cells ((1) T84 cells (which is known as IK1 channel expressing cells) or (2) human IK1 channel expressing cells (transgene: NM_002250.2, use cells: CHO dhfr-)) were seeded in a 384-well microplate so as to be 12000 cells/well. After incubation overnight, a medium was suctioned, and 20 μL of FLIPR Membrane Potential Assay Reagent (FLIPR Membrane Potential Assay kit, manufactured by Molecular Devices LLC) was added to the medium, followed by incubation at room temperature for 1 hour. Fluorescence intensity was measured at 530 nm/590 nm, which was set as a pre value. 20 μL of a buffer solution containing a test drug (which contains 0.01% pluronic acid and 20 mM Hepes-NaOH (pH7.4); 0.2% CHAPS in HBSS) was added, followed by incubation at room temperature for 1 hour, and a post value was measured. Activity of the test drug was determined from relative values where NS-309 (6,7-dichloro-1H-indole-2,3-dione 3-oxime, manufactured by Sigma-Aldrich Co., LLC; 0.2 μM; DMSO solution) treatment was set as 100%, and DMSO treatment was set as 0%. Activity value (%) at each concentration was plotted against a concentration of the test drug, and EC50 value was calculated by a Logistic regression method.
(§2) The EC50 values of an IK1 channel opening action of the several representative Example compounds of the invention are shown in the following Table (in the Table, No. means a number, and Ex means an Example compound number. The same shall apply hereinafter.). […] With P<0.05 in each assay, it was determined that there was a significant difference.

[2] = target: T1, IK1 channel; assay: IK1 channel opening activity measurement test (membrane potential, T84 cells); type: cell-based; parameters: T84 cells (which is known as IK1 channel expressing cells); endogenous in cells; host or cells: T84 cells; settings: NS-309 0.2 μM = 100%, DMSO = 0%, read-out: EC50 of IK1 channel opening action
Experimental: as §1, §2

[3] = system: monoiodoacetate-induced osteoarthritis model; assay: Inhibitory effect on hindlimb weight distribution in monoiodoacetate-induced osteoarthritis model; type: in vivo, rat; settings: for significance versus solvent group: at the dose shown in Table 5, P<0.05; for Improvement rate: male SD rats, 1 mg/kg oral, 3 weeks after MIA, 1 or 2 hours after administration
Experimental: (§3) Moreover, in Test Examples 2 to 6, a 0.5% methyl cellulose suspension was used as a test drug.
This model is a model of osteoarthritis, and action to osteoarthritis pain can be evaluated using the model. This test was performed based on The Journal of Pharmacology and Experimental Therapeutics, 2010, vol. 334, p. 955-963. Under isoflurane anesthesia, 1 mg/site of monoiodoacetate (hereinafter referred to as MIA) (manufactured by Sigma-Aldrich Co., LLC) solution was singly administered into the right knee joint cavity of male SD rats (provided by Charles River Laboratories, Japan). MIA was dissolved in physiological saline, and 50 μL thereof was administered using a 27 gauge×0.5 inches needle. 3 weeks after the MIA administration, the solvent or the test drug was orally administered. After 1 or 2 hours, the weight distribution between the left and the right hindlimb was measured using an Incapacitance Tester (manufactured by Linton Instrumentation). A significant difference test of a solvent group and a test drug group was performed in comparison between groups using Student's t-test or Dunnett multiple comparison test. With P<0.05 in each assay, it was determined that there was a significant difference.
Effectiveness with respect to a monoiodoacetate-induced osteoarthritis model of the several representative Example compounds of the invention is shown in the following Table.

[4] = system: reserpine-induced myalgia model; assay: Effect on tenderness threshold value in reserpine-induced myalgia model; type: in vivo, rat
Experimental: as §3
This model is a model which imitates a fibromyalgia disease. This test was performed based on Pain, 2009, vol. 146, p 26-33. Reserpine (1 mg/kg) was subcutaneously administered into male SD rats (provided by Japan SLC, Inc, Japan) once a day for 3 days. After 5 days, the solvent or the test drug was orally administered. After 2 hours, a tenderness threshold value was measured using Randall-Selitto equipment (manufactured by Muromachi Kikai Co., Ltd.) in a gastrocnemius muscle. A significant difference test of a solvent group and a test drug-administered group was performed in comparison between groups using Student's t-test or Dunnett multiple comparison test. Here, a value obtained by administering the solvent to a normal rat to which reserpine was not administered was set as 100%, and a value of the reserpine group into which the solvent was administered was set as 0%. With P<0.05 in each assay, it was determined that there was a significant difference.

[5] = system: vagotomized rat; assay: Action to tenderness threshold value in vagotomized rat; type: in vivo; settings: for significance versus solvent group: at the dose shown in Table 6, P<0.05; for Improvement rate (tenderness threshold value): male SD rats, 3 mg/kg oral, after 2 hours, sham = 100%, surgery solvent group = 0%
Experimental: as §3
The model was made based on Neuroscience, 2009, vol. 164, p. 1252-1262. Male SD rats (provided by Japan SLC, Inc, Japan) were anesthetized with somnopentyl, followed by shaving near a xiphisternum. Incision was performed along the midline from the xiphisternum to the tail side. A stomach and an esophagus under a diaphragm were exposed, and vagus nerves on both sides of the esophagus were transected. Muscle and skin were sutured in order. 1 to 3 weeks after the surgery, a decrease in the tenderness threshold value was confirmed. The solvent or the test drug was orally administered, and after 2 hours, the tenderness threshold value was measured using Randall-Selitto equipment (manufactured by Muromachi Kikai Co., Ltd.) in a gastrocnemius muscle. A significant difference test of a solvent group and a test drug group was performed in comparison between groups using Student's t-test or Dunnett multiple comparison test. With P<0.05 in each assay, it was determined that there was a significant difference.
Effectiveness of several representative Example compounds of the invention is shown in the following Table as an improvement rate when a value of a group in which the solvent was administered into a sham surgery group was set as 100%, and a value of a group in which the solvent was administered into a surgery group was set as 0%.

[6] = system: adjuvant-induced arthritis rat; assay: Inhibitory effect on hindlimb weight distribution in adjuvant-induced arthritis rat; type: in vivo; settings: for significance versus solvent group: at the dose shown in Table 4, P<0.05; for MED (minimum effective dose): female Lewis rat, oral, 1 or 2 hours after administration, hindlimb weight distribution
Experimental: as §3
This model is a model to study inflammatory pain. 50 μL of killed Mycobacterium tuberculosis H37Ra (manufactured by DIFCO Laboratories) suspended in a liquid paraffin was subcutaneously administered into a right hindlimb footpad of a female Lewis rat (provided by Charles River Laboratories, Japan) so as to be 10 mg/mL. Next day, the solvent or the test drug was orally administered. After 1 or 2 hours, the weight distribution between the left and the right hindlimbs was measured using an Incapacitance Tester (manufactured by Linton Instrumentation). A significant difference test of a solvent group and a test drug group was performed in comparison between groups using Student's t-test or Dunnett multiple comparison test. With P<0.05 in each assay, it was determined that there was a significant difference.
Effectiveness in the adjuvant-induced arthritis rat test of the several representative Example compounds of the invention is shown in the following Table.

[7] = system: abdominal pain by rat colorectal distension; assay: Effect on abdominal pain by rat colorectal distension; type: in vivo; settings: for MED (minimum effective dose): Wistar male rats, oral, 1 hour after administration, abdominal flexion behavior; for significance versus solvent group: at the dose shown in Table 3, P<0.05
Experimental: as §3
After Wistar male rats (CLEA Japan, Inc.) were anesthetized with isoflurane, a balloon was inserted into the colon. After awakening, the test drug was orally administered, and after 1 hour, abdominal pain induced by balloon expansion was measured as an indicator of an abdominal flexion behavior. Each stimulus (15, 30, 45, 60 mmHg) was repeatedly performed for 5 minutes at 5-minute intervals. A significant difference test of a solvent group and a test drug group was performed in comparison between groups using Student's t-test or Dunnett multiple comparison test. With P<0.05 in each assay, it was determined that there was a significant difference.
Effectiveness in the abdominal pain test by rat colorectal distension of the several representative Example compounds of the invention is shown in the following Table (In the Table, MED means a minimum effective dose. The same shall apply hereinafter.).

SMILES	EC50 [1] [nM]	EC50 [2] [nM]	significance versus solvent group [3]	Improvement rate [3]	significance versus solvent group ([4]; 1 mg/kg, P<0.05)	Improvement rate (tenderness threshold value) ([4]; male SD rats, 1 mg/kg oral, after 2 hours, normal rat = 100%, reserpine solvent group = 0%)	significance versus solvent group [5]	Improvement rate (tenderness threshold value) [5]	significance versus solvent group [6]	MED (minimum effective dose) [6] [mg/kg]	MED (minimum effective dose) [7] [mg/kg]	significance versus solvent group [7]
Cc1sc2cc(Cl)ccc2c1-c1ccc(N2CCO[C@H](CNC(C)(C)C)C2)c(C(=O)O)c1 [Ex16]	33	8040	–	–	–	–	–	–	–	–	–	–
Cc1sc2cc(Cl)ccc2c1-c1ccc(N2CCO[C@H](CNC3CCC3)C2)c(C(=O)O)c1 [Ex10, 5-(6-chloro-2-methyl-1-benzothiophen-3-yl)-2-{(2R)-2-[(cyclobutylamino)methyl]morpholin-4-yl}benzoic acid monohydrochloride]	93	3890	significant activity	>50% (l mg/kg)	significant activity	higher than 50%	significant activity	>50% (3 mg/kg)	significant activity	3	0.3	significant activity
O=C(O)c1cc(-c2c(F)sc3cc(Cl)ccc23)ccc1N1CCO[C@H](CNC2CCC2)C1 [Ex11, 5-(6-chloro-2-fluoro-1-benzothiophen-3-yl)-2-{(2R)-2-[(cyclobutylamino)methyl]morpholin-4-yl}benzoic acid hydrochloride]	11	3070	significant activity	>50% (l mg/kg)	–	–	–	–	significant activity	3	–	–
Cc1sc2cc(Cl)c(F)cc2c1-c1ccc(N2CCO[C@H](CNC(C)(C)C)C2)c(C(=O)O)c1 [Ex19]	5.5	1500	–	–	–	–	–	–	–	–	–	–
O=C(O)c1cc(-c2csc3cc(C(F)(F)F)c(Cl)cc23)ccc1N1CCO[C@H](CNC2CCC2)C1 [Ex15, 5-[5-chloro-6-(trifluoromethyl)-1-benzothiophen-3-yl]-2-{(2R)-2-[(cyclobutylamino)methyl]morpholin-4-yl}benzoic acid hydrochloride]	–	–	–	–	–	–	significant activity	>50% (3 mg/kg)	–	–	–	–
CC(C)(C)NC[C@H]1CCCN(c2ccc(-c3csc4cc(C(F)(F)F)ccc34)cc2C(=O)O)C1 [Ex14, 2-{(3R)-3-[(tert-butylamino)methyl]piperidin-1-yl}-5-[6-(trifluoromethyl)-1-benzothiophen-3-yl]benzoic acid hydrochloride]	28	3170	significant activity	42% (1 mg/kg)	–	–	significant activity	>50% (3 mg/kg)	significant activity	1	–	–
O=C(O)c1cc(-c2csc3cc(C(F)(F)F)ccc23)ccc1N1CCO[C@H](CNC2CCC2)C1 [Ex12]	24	1750	–	–	–	–	–	–	–	–	–	–
Cc1sc2cc(F)ccc2c1-c1ccc(N2CCO[C@H](CNC3CCC3)C2)c(C(=O)O)c1 [Ex13]	52	3760	–	–	–	–	–	–	–	–	–	–
Cc1sc2cc(Cl)c(F)cc2c1-c1ccc(N2CCO[C@H](CNC3CCC3)C2)c(C(=O)O)c1 [Ex18, 5-(6-chloro-5-fluoro-2-methyl-1-benzothiophen-3-yl)-2-{(2R)-2-[(cyclobutylamino)methyl]morpholin-4-yl}benzoic acid hydrochloride]	48	920	significant activity	>50% (1 mg/kg)	–	–	significant activity	>50% (3 mg/kg)	significant activity	3	0.3	significant activity
